Data as given in paper PMC6328430, “Radiation dosimetry of [^68Ga]PSMA-11 in low-risk prostate cancer patients” (EJNMMI Physics, 2019).
Like-named read-outs stand apart in the source and are kept apart here.

Experiments:
[1] = PET/CT organ uptake and time-integrated activity coefficients after i.v. [^68Ga]PSMA-11; format: in vivo, human
Description: The PET/CT scanning was performed at the University Hospital of Umeå on a Discovery 690 [18] The first session, aimed to depict the fast tracer distribution, consisted of three head-to-thigh scans commencing at times 0, 10, and 20 min post-injection, followed by a head-to-toe whole-body scan approximately 30 min post-injection. The remaining three acquisitions were all head-to-toe scans, commencing at 90 min, 180 min, and 255 min post-injection. CT scans were acquired with 120 kV, 10 mA, 0.5 s/revolution, and 2.5-mm slice thickness, except for the whole-body scan at the first session which was acquired with 30 mA (Fig. 1) to provide adequate anatomical information. All PET scans were acquired using time-of-flight mode, with 60 s per bed position, and 11 slices bed overlap. PET images, corrected for attenuation and scatter, were reconstructed using the scanner implementation of the 3D iterative ordered subset expectation maximization (OSEM) reconstruction including time-of-flight (named VuePoint HD ViP) with 2 iterations, 24 subsets, 6.4-mm post-filter, and a 70-cm field-of-view, yielding a 128 × 128 matrix (5.5 × 5.5 × 3.27 mm^3 voxels). PET images were decay-corrected to start of each scan.
Urine was collected up to 4 h post-injection, and the total voided volume was weighed. From each voided volume, a 1-mL sample was weighed and radioactivity was measured using a well counter (NaI-scintillator), and the activity concentration in Bq/mL was calculated. The activity concentration and voided volume were used to calculate the total voided activity.
(§1) Volumes of interest (VOIs) were delineated for the kidneys, liver, lungs, spleen, salivary glands, and total body by a medical physicist and a radiologist using RayStation (RaySearch Laboratories, Stockholm, Sweden). Using the MICE Toolkit (Nonpi Medical AB, Umea, Sweden), the median VOI activity-concentration (Cmedian(t)) was extracted and used to calculate the fraction injected activity for each imaging session. For a specific VOI, the retention, U(t), in an organ with mass M [g], expressed as fraction of injected activity, is calculated as:1 Ut=Cmediant×M/A0 where A0 is the administered activity [Bq] and t is the time after administration. […] The remaining activity was assumed to be homogeneously distributed in the rest of the body, and the remaining activity in the body could therefore be calculated by subtracting the activities in the specific organ, blood, urinary bladder content, and urine from the decay-corrected administered activity.
(§2) The uptake was fitted to a bi-exponential or mono-exponential function of time post-injection using the software SAAM II (The Epsilon Group, Charlottesville, VA, USA). This function is used to calculate the time-integrated activity coefficient (TIAC), i.e., total number of decays per administered activity. […] The cumulated activity in the urinary bladder was calculated in a similar way, using measured data for urine plus bladder content. ICRP uses 3.5-h voiding interval for calculating absorbed doses from radiopharmaceuticals; thus, the activity in the bladder is zeroed at 3.5 and 7 h post-injection, before calculating the cumulated activity in accordance with Eq. 2.

[2] = Blood activity clearance from venous blood samples (bi-exponential fit); format: in vivo, human
Description: Venous blood samples were drawn at 45 min, 85 min, 175 min, and 245 min post-injection. The activity concentrations of these samples were measured in the abovementioned well counter. No metabolite analysis of the samples was performed, since this is beyond the scope of this dosimetry study.
as §2
TIACs for the organs used in the dose calculations can be seen in Table 1. […] The fitted blood curve was calculated on pooled normalized data and forced through the point 100% at time zero.

[3] = Absorbed organ dose and effective dose calculation (IDAC-Dose 2.1, ICRP 133/103; Monte Carlo for eye lenses); format: in vivo, human
Source text: as §1, §2
The absorbed dose to the organs was calculated using the software IDAC-Dose 2.1 [22] which uses specific absorbed fractions for photons and electron from ICRP Publication 133 [19], […]
To calculate the dose to the lacrimal glands, spherical shape was assumed, with a mass of 0.7 g each, using the “sphere module” in IDAC-Dose 2.1. […] The lens of the eyes is a target organ in ICRP Publication 133 [19]; however, the lacrimal glands are not identified as source organs in the ICRP phantoms and an absorbed fraction is not presented in this report. Monte Carlo methods were therefore used to calculate absorbed fractions using the ICRP/ICRU voxel phantom for an adult. For the image activity concentration, the highest voxel was used, instead of the median. The reason for this is that the small size of the glands results in a significant “partial volume effect” [26].

[4] = cited from earlier work
[5] = median of six patients, ICRP/ICRU voxel phantom organ mass
[6] = bi-exponential fit, pooled normalized data
[7] = six participants, sphere of 0.7 g

Q: What does the source list for `O=C([O-])CN(CCN(CC(=O)[O-])Cc1cc(CCC(=O)NCCCCCC(=O)NCCCC[C@H](NC(=O)N[C@@H](CCC(=O)O)C(=O)O)C(=O)O)ccc1[O-])Cc1cc(CCC(=O)O)ccc1[O-].[68Ga+3].[OH3+]` [[^68Ga]PSMA-11, ^68Ga-labeled Glu-NH-CO-NH-Lys(Ahx)-HBED-CC]?
A: Accumulation in kidneys ([1]; intravenous injection, PET/CT): 7%; Accumulation in liver ([1]; intravenous injection, PET/CT): 15%; Accumulation in salivary glands ([1]; intravenous injection, PET/CT): 0.5%; Accumulation in spleen ([1]; intravenous injection, PET/CT): 2%; Liver TIAC, conventional method ([1]; measured organ volumes (liver mass 800–1200 g)): 0.10 h; Time-integrated activity coefficient, Blood, Median ([1]; median of six patients): 0.27 h; Time-integrated activity coefficient, Urinary bladder contents, Median ([1]; median of six patients, 3.5-h voiding interval): 0.11 h; Time-integrated activity coefficient, Kidneys, Median [1, 5]: 0.22 h; Time-integrated activity coefficient, Liver, Median [1, 5]: 0.23 h; Time-integrated activity coefficient, Spleen, Median [1, 5]: 0.021 h; Time-integrated activity coefficient, Salivary glands, Median ([1]; median of six patients, estimated directly from uptake data (Eq. 2)): 0.020 h; Time-integrated activity coefficient, Lacrimal glands, Median ([1]; median of six patients, highest voxel x factor 2, 0.7 g each): 0.00053 h; Time-integrated activity coefficient, Remainder, Median ([1]; median of six patients, rest of the body): 0.68 h; Time-integrated activity coefficient, Blood, P1 ([1]; patient P1): 0.32 h; Time-integrated activity coefficient, Kidneys, P1 ([1]; patient P1): 0.22 h; Time-integrated activity coefficient, Lacrimal glands, P1 ([1]; patient P1): 0.00075 h; Time-integrated activity coefficient, Liver, P1 ([1]; patient P1): 0.26 h; Time-integrated activity coefficient, Remainder, P1 ([1]; patient P1): 0.51 h; Time-integrated activity coefficient, Salivary glands, P1 ([1]; patient P1): 0.036 h; Time-integrated activity coefficient, Spleen, P1 ([1]; patient P1): 0.049 h; Time-integrated activity coefficient, Urinary bladder contents, P1 ([1]; patient P1): 0.12 h; Time-integrated activity coefficient, Blood, P2 ([1]; patient P2): 0.26 h; Time-integrated activity coefficient, Kidneys, P2 ([1]; patient P2): 0.27 h; Time-integrated activity coefficient, Lacrimal glands, P2 ([1]; patient P2): 0.00055 h; Time-integrated activity coefficient, Liver, P2 ([1]; patient P2): 0.15 h; Time-integrated activity coefficient, Remainder, P2 ([1]; patient P2): 0.76 h; Time-integrated activity coefficient, Salivary glands, P2 ([1]; patient P2): 0.020 h; Time-integrated activity coefficient, Spleen, P2 ([1]; patient P2): 0.012 h; Time-integrated activity coefficient, Urinary bladder contents, P2 ([1]; patient P2): 0.094 h; Time-integrated activity coefficient, Blood, P3 ([1]; patient P3): 0.36 h; Time-integrated activity coefficient, Kidneys, P3 ([1]; patient P3): 0.19 h; Time-integrated activity coefficient, Lacrimal glands, P3 ([1]; patient P3): 0.00038 h; Time-integrated activity coefficient, Liver, P3 ([1]; patient P3): 0.22 h; Time-integrated activity coefficient, Remainder, P3 ([1]; patient P3): 0.62 h; Time-integrated activity coefficient, Salivary glands, P3 ([1]; patient P3): 0.021 h; Time-integrated activity coefficient, Spleen, P3 ([1]; patient P3): 0.017 h; Time-integrated activity coefficient, Urinary bladder contents, P3 ([1]; patient P3): 0.13 h; Time-integrated activity coefficient, Blood, P4 ([1]; patient P4): 0.22 h; Time-integrated activity coefficient, Kidneys, P4 ([1]; patient P4): 0.23 h; Time-integrated activity coefficient, Lacrimal glands, P4 ([1]; patient P4): 0.00093 h; Time-integrated activity coefficient, Liver, P4 ([1]; patient P4): 0.23 h; Time-integrated activity coefficient, Remainder, P4 ([1]; patient P4): 0.78 h; Time-integrated activity coefficient, Salivary glands, P4 ([1]; patient P4): 0.017 h; Time-integrated activity coefficient, Spleen, P4 ([1]; patient P4): 0.026 h; Time-integrated activity coefficient, Urinary bladder contents, P4 ([1]; patient P4): 0.041 h; Time-integrated activity coefficient, Blood, P5 ([1]; patient P5): 0.25 h; Time-integrated activity coefficient, Kidneys, P5 ([1]; patient P5): 0.19 h; Time-integrated activity coefficient, Lacrimal glands, P5 ([1]; patient P5): 0.00052 h; Time-integrated activity coefficient, Liver, P5 ([1]; patient P5): 0.19 h; Time-integrated activity coefficient, Remainder, P5 ([1]; patient P5): 0.73 h; Time-integrated activity coefficient, Salivary glands, P5 ([1]; patient P5): 0.030 h; Time-integrated activity coefficient, Spleen, P5 ([1]; patient P5): 0.019 h; Time-integrated activity coefficient, Urinary bladder contents, P5 ([1]; patient P5): 0.16 h; Time-integrated activity coefficient, Blood, P6 ([1]; patient P6): 0.28 h; Time-integrated activity coefficient, Kidneys, P6 ([1]; patient P6): 0.26 h; Time-integrated activity coefficient, Lacrimal glands, P6 ([1]; patient P6): 0.0002 h; Time-integrated activity coefficient, Liver, P6 ([1]; patient P6): 0.31 h; Time-integrated activity coefficient, Remainder, P6 ([1]; patient P6): 0.63 h; Time-integrated activity coefficient, Salivary glands, P6 ([1]; patient P6): 0.017 h; Time-integrated activity coefficient, Spleen, P6 ([1]; patient P6): 0.022 h; Time-integrated activity coefficient, Urinary bladder contents, P6 ([1]; patient P6): 0.050 h; Biological half-life in blood, fast component [2, 6]: 6.5 min; Biological half-life in blood, slow component [2, 6]: 4.4 h; Fraction of blood activity cleared with the 6.5 min half-life ([2]; fast component): 91%; Fraction of blood activity cleared with the 4.4 h half-life ([2]; slow component): 9%; Liver dose factor, conventional method ([3]; TIAC derived with measured organ volumes (liver mass 800–1200 g)): 0.034 mGy/MBq; Effective dose per administration ([3]; administered activity of 2 MBq/kg to a person weighting 80 kg): 3.5 mSv; Effective dose ([3]; calculated for comparison using ICRP Publication 60): 0.022 mSv/MBq; Effective dose ([3]; median, ICRP Publication 103, male component only): 0.022 mSv/MBq; Absorbed dose coefficient, Colon wall, Median ([3]; six participants): 0.014 mGy/MBq; Absorbed dose coefficient, Colon wall, Range ([3]; six participants): 0.012–0.014 mGy/MBq; Absorbed dose coefficient, Endosteum, Median ([3]; six participants): 0.011 mGy/MBq; Absorbed dose coefficient, Endosteum, Range ([3]; six participants): 0.0095–0.011 mGy/MBq; Absorbed dose coefficient, Esophagus, Median ([3]; six participants): 0.014 mGy/MBq; Absorbed dose coefficient, Esophagus, Range ([3]; six participants): 0.011–0.015 mGy/MBq; Absorbed dose coefficient, Kidneys, Median ([3]; six participants): 0.24 mGy/MBq; Absorbed dose coefficient, Kidneys, Range ([3]; six participants): 0.20–0.28 mGy/MBq; Absorbed dose coefficient, Liver, Median ([3]; six participants): 0.053 mGy/MBq; Absorbed dose coefficient, Liver, Range ([3]; six participants): 0.038–0.071 mGy/MBq; Absorbed dose coefficient, Lungs, Median ([3]; six participants): 0.016 mGy/MBq; Absorbed dose coefficient, Lungs, Range ([3]; six participants): 0.013–0.017 mGy/MBq; Absorbed dose coefficient, Red bone marrow, Median ([3]; six participants): 0.015 mGy/MBq; Absorbed dose coefficient, Red bone marrow, Range ([3]; six participants): 0.014–0.015 mGy/MBq; Absorbed dose coefficient, Salivary glands, Median ([3]; six participants): 0.089 mGy/MBq; Absorbed dose coefficient, Salivary glands, Range ([3]; six participants): 0.074–0.15 mGy/MBq; Absorbed dose coefficient, Skin, Median ([3]; six participants): 0.0067 mGy/MBq; Absorbed dose coefficient, Skin, Range ([3]; six participants): 0.0059–0.0069 mGy/MBq; Absorbed dose coefficient, Spleen, Median ([3]; six participants): 0.046 mGy/MBq; Absorbed dose coefficient, Spleen, Range ([3]; six participants): 0.030–0.10 mGy/MBq; Absorbed dose coefficient, Stomach wall, Median ([3]; six participants): 0.015 mGy/MBq; Absorbed dose coefficient, Stomach wall, Range ([3]; six participants): 0.015–0.017 mGy/MBq; Absorbed dose coefficient, Testes, Median ([3]; six participants): 0.0087 mGy/MBq; Absorbed dose coefficient, Testes, Range ([3]; six participants): 0.0074–0.0089 mGy/MBq; Absorbed dose coefficient, Thyroid, Median ([3]; six participants): 0.010 mGy/MBq; Absorbed dose coefficient, Thyroid, Range ([3]; six participants): 0.0090–0.010 mGy/MBq; Absorbed dose coefficient, Urinary bladder wall, Median ([3]; six participants): 0.057 mGy/MBq; Absorbed dose coefficient, Urinary bladder wall, Range ([3]; six participants): 0.028–0.084 mGy/MBq; Absorbed dose coefficient, Eye lenses, Median ([3]; six participants, Monte Carlo methods for lacrimal gland contribution): 0.0051 mGy/MBq; Absorbed dose coefficient, Lacrimal glands, Median [3, 7]: 0.11 mGy/MBq; Absorbed dose coefficient, Lacrimal glands, Range [3, 7]: 0.043–0.2 mGy/MBq; Kidney dose ([4]; Afshar-Oromieh et al. ref 15): 0.262 mGy/MBq; Kidney dose ([4]; Demirci et al. ref 16): 0.246 mGy/MBq; Lacrimal glands absorbed dose ([4]; unit density sphere model, Demirci et al. ref 16): 0.04 ± 0.008 mGy/MBq
